{"source": "patent US20080317780A1", "about": "“VIRAL VACCINE AND METHOD FOR PREPARATION THEREOF” (NATIONAL RESEARCH COUNCIL OF CANADA, priority 2006, published 2008)", "tested_on": "zinc finger protein metallothionein (MT)", "assay": "Zinc-finger disruption assay (zinc release from metallothionein, PAR absorbance at 500 nm)", "assay_type": "biochemical", "description": "Biochem. Biophys. 287:175-179, 1991; and Fliss, H.; Ménard, M., “Oxidant-induced mobilization of zinc from metallothionein” Arch. Biochem. Biophys. 293:195-199, 1991. Briefly, the assay is conducted as follows. The assay is performed in a cuvet containing the zinc finger protein metallothionein (MT), and the metallochromic indicator 4-(2-pyridylazo)resorcinol (PAR).", "data": [{"smiles": "OCl", "note": "[hypochlorous acid]", "values": [{"measurement": "release of zinc in the zinc-finger assay (PAR absorbance)", "setting": "100 μmol/L", "result": "rapid"}]}, {"smiles": "NCl", "note": "[monochloramine]", "values": [{"measurement": "zinc-finger disruption (PAR absorbance)", "setting": "25 μmol/L", "result": "increase in PAR absorbance"}]}, {"smiles": "N[C@@H](Cc1ccccc1)C(=O)O", "note": "[phenylalanine]", "values": [{"measurement": "release of zinc in the zinc-finger assay (PAR absorbance)", "setting": "500 μmol/L", "result": "negligible"}]}]}
